According to ChEMBL document CHEMBL4346716, “Synthesis of novel andrographolide beckmann rearrangement derivatives and evaluation of their HK2-related anti-inflammatory activities” (Eur J Med Chem, 2019):
Active and inactive are the calls of the source. The calls are words filed in the database; no cut-off is given here.

Key:
[1] = test system: RAW264.7; assay: Antiinflammatory activity in mouse RAW264.7 cells assessed as inhibition of LPS-induced NO production preincubated for 3 hrs followed by LPS addition measured after 24 hrs by Griess assay; type: functional, cell-based
[2] = molecular target: T1, Hexokinase-2 (Homo sapiens, UniProt P52789); assay: Inhibition of recombinant human HK2 expressed in Escherichia coli BL21(DE3) using glucose as substrate preincubated for 10 mins followed by substrate addition in presence of ATP by G6PDH/NADP coupled assay
T1 sequence (P52789 whole entry): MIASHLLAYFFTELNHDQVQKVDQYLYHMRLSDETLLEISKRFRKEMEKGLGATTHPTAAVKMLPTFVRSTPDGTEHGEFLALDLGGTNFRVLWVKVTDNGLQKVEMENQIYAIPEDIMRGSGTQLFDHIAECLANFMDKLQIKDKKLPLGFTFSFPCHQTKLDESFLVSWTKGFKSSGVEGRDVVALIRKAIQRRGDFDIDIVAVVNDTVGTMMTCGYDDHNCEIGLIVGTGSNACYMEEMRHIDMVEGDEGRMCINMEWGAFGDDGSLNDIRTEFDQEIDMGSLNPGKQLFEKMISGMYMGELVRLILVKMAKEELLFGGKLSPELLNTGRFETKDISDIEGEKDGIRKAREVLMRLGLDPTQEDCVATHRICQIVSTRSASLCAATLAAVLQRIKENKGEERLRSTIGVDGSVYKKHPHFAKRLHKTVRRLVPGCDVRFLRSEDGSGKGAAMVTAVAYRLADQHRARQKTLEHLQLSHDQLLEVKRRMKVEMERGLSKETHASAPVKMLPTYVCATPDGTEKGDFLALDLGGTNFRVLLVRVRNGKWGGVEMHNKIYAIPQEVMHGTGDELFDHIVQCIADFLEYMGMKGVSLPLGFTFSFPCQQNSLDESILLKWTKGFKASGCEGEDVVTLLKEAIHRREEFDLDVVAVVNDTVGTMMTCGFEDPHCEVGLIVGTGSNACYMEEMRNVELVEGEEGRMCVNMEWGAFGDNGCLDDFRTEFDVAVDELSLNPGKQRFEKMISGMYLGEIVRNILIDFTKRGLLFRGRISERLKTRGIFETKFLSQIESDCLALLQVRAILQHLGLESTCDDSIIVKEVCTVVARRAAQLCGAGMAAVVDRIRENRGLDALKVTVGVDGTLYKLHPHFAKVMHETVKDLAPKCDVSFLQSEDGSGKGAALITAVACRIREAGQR

[3] = test system: RAW264.7; assay: Cytotoxicity against mouse RAW264.7 cells assessed as reduction in cell viability up to 100 uM after 24 hrs by MTT assay; type: cell-based; details: raw264.7, 24 h
[4] = test system: RAW264.7; assay: Antiinflammatory activity in mouse RAW264.7 cells assessed as reduction in LPS-induced IL-1beta production preincubated for 3 hrs followed by LPS addition measured after 24 hrs by ELISA; type: functional, cell-based
[5] = test system: RAW264.7; assay: Antiinflammatory activity in mouse RAW264.7 cells assessed as reduction in LPS-induced IL-6 production preincubated for 3 hrs followed by LPS addition measured after 24 hrs by ELISA; type: functional, cell-based
[6] = test system: RAW264.7; assay: Antiinflammatory activity against mouse RAW264.7 cells assessed as inhibition of LPS-induced COX2 protein expression preincubated for 3 hrs followed by LPS addition measured after 24 hrs by Western blot analysis; type: functional, cell-based
[7] = test system: RAW264.7; assay: Antiinflammatory activity against mouse RAW264.7 cells assessed as inhibition of LPS-induced iNOS protein expression preincubated for 3 hrs followed by LPS addition measured after 24 hrs by Western blot analysis; type: functional, cell-based
[8] = test system: RAW264.7; assay: Inhibition of LPS-induced NFkappaB protein expression in mouse RAW264.7 cells at 12.5 to 50 uM preincubated for 3 hrs followed by LPS addition and measured after 24 hrs by Western blot analysis; type: functional, cell-based
[9] = molecular target: Transcription factor p65 (Mus musculus) (UniProt Q04207); assay: Inhibition of LPS-stimulated NFkappaB p65 nuclear translocation in mouse RAW264.7 cells at 25 uM pretreated for 2 hrs followed by LPS-stimulation and measured after 12 hrs by DAPI staining based fluorescence microscopic analysis; type: cell-based
[10] = molecular target: T2, Hexokinase-2 (Mus musculus) (UniProt O08528); assay: Inhibition of HK2 mouse RAW264.7 cells assessed as reduction in LPS-induced glycolysis at 50 uM followed by LPS-stimulation and measured after 4 hrs by seahorse XFe96 analyser based assay; type: cell-based
T2 sequence (whole entry): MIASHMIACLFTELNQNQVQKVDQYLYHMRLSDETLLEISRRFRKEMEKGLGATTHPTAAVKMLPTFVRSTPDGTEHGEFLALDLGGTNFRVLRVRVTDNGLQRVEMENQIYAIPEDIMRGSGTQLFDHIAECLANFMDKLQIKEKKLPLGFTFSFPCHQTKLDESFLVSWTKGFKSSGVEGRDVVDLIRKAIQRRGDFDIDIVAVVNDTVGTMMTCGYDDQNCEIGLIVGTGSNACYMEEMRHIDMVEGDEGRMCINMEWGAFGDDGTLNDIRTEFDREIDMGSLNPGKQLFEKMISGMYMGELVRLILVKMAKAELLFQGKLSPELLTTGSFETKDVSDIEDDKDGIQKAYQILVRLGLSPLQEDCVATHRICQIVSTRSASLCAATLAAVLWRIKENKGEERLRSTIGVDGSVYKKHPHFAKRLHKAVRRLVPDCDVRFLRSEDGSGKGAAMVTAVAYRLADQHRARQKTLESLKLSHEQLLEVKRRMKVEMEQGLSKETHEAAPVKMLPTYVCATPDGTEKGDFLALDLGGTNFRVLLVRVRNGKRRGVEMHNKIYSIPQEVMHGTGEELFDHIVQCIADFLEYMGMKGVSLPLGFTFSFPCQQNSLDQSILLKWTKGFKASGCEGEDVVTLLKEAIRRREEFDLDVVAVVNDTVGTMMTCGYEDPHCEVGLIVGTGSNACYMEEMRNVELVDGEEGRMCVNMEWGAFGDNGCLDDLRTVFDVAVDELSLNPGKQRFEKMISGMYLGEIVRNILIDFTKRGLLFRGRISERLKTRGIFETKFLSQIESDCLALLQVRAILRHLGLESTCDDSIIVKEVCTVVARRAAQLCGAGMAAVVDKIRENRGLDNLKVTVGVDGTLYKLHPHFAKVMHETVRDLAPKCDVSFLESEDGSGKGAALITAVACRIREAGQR

[11] = molecular target: T1, Hexokinase-2; assay: Binding affinity to recombinant human HK2 expressed in Escherichia coli BL21(DE3) assessed as dissociation constant measured after 15 mins by microscale thermophoresis assay
[12] = molecular target: T3, Hexokinase-2 (Homo sapiens) (UniProt P52789); assay: Non competitive inhibition of recombinant human HK2 expressed in Escherichia coli BL21(DE3) assessed as decrease in Vmax using ATP as substrate by Lineweaver-Burk double reciprocal plot analysis
T3 sequence (whole entry): T1 sequence (P52789 whole entry)

[13] = molecular target: T3, Hexokinase-2 (Homo sapiens); assay: Non competitive inhibition of recombinant human HK2 expressed in Escherichia coli BL21(DE3) assessed as decrease in Vmax using glucose as substrate by Lineweaver-Burk double reciprocal plot analysis

Chain of Transcription factor p65 (Mus musculus) (Q04207 whole entry): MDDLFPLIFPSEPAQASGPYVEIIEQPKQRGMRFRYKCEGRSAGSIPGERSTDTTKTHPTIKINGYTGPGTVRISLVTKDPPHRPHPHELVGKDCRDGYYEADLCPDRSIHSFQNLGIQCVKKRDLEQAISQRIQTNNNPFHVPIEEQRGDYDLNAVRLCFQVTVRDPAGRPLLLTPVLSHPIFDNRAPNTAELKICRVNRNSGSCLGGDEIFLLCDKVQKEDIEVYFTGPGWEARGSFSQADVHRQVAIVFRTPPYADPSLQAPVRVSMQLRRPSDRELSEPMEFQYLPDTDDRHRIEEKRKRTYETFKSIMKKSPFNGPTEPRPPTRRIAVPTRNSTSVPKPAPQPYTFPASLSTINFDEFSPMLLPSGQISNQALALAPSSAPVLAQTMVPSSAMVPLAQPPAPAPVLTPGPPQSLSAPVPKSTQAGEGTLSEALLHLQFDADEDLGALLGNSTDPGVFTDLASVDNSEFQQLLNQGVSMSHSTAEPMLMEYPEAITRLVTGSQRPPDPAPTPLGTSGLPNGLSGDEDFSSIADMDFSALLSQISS

IC50 [1]: 22.4 µM | IC50 [2]: 9.36 µM | inhibition [9]: Active | inhibition [10]: Active | Kd [11]: 5.12 µM | inhibition [12]: Dose-dependent effect | inhibition [13]: Dose-dependent effect
Structure (SMILES): C=C1CC[C@H]2[C@@](C)(CCC(=O)N[C@@]2(C)COC(=O)CCCC[C@@H]2CCSS2)[C@@H]1/C=C/C1=CCOC1=O
Activity [3]: Non-Toxic | inhibition [4]: Dose-dependent effect | inhibition [5]: Dose-dependent effect | inhibition [6]: Dose-dependent effect | inhibition [7]: Dose-dependent effect | inhibition [8]: Active
